# “Also recorded” adds a separate entry of the source.
# Key:
# Jurkat cells [1] = assay: Jurkat apoptosis assays (TMRE, caspase 3, Annexin V, viability by flow cytometry); format: cell-based
# Description: (§1) Jurkat cells were routinely set up in apoptosis assays at 2×10^5/ml in RPMI with 0.5% FBS. After treatment, cells were stained either with 200 nM TMRE, 5 μl/ml NucView™ (Biotium), or Annexin V-FITC (Roche) for 15 mins prior to analysis by flow cytometry. Forward- and side-scatter properties were used to exclude debris and a ‘viable’ gate corresponding to the intact, PI negative cell population was used for fluorescence analysis. For A549, cells at 90% confluency were treated with RB compounds for 48 hrs in DMEM with 0.5% FBS. After treatment, cells were released with trypsin and then stained with NucView™ prior to analysis by flow cytometry.
# Jurkat cells [2] = assay: Immunoblotting of signalling and apoptosis markers in Jurkat cells; format: cell-based; conditions: 7.5 μM, time course
# Description: Jurkat cells were treated at 5×10^5/ml in RPMI with 0.5% FBS as detailed. Cells were harvested by centrifugation at 1500 g for 5 mins and washed with PBS prior to lysis in NP40 lysis buffer (10 mM Tris-HCl pH7.4, 137 mM NaCl, 10% glycerol, 1% NP40, protease inhibitor (Roche), 4 mM NaF, 2 mM Na-vanadate, 10 mM β-glycerophosphate, 1 mM Na-pyrophosphate, 1 mM Na-molybdate) for 30 minutes on ice with vortexing. The lysates were clarified at 13,000 rpm for 15 minutes at 4° C. and protein concentration determined using BCA assay (Pierce). 30-40 μg of lysate were run on to Criterion-XT 4-12% Bis-Tris gels (Bio-Rad), followed by transfer onto nitrocellulose. The filters were blocked for 30 minutes at room temperature in TNT buffer (10 mM Tris-HCl pH8, 150 mM NaCl, 0.05% Tween-20) containing blocking buffer (Roche), prior to incubation with antibodies over night. Antibodies used were from Cell Signalling; Phospho-p38 MAPK(#4571), Phospho-SAPK/JNK(81E11), Phospho-p44/42 MAP kinase (#9101), Phospho-AKT S473 (#9271), p44/42 MAP kinase (#9102), AKT (#9272), BID (#2002), caspase-3 (#9602), PARP (#9542), and Santa Cruz Biotechnology; pan 14-3-3 K19 (sc-629). Following antibody binding, filters were washed in TNT for 1 hr at room temperature, incubated with 1/12,500 anti-rabbit or anti-mouse HRP secondary antibody (Pierce) for 1 hr at room temperature and finally washed for 1 hr with TNT before incubation with Clarity western ECL reagent (Bio-Rad). Filters were exposed on a LAS 4000 imager. Blots were analysed using Multi-gauge/Colony software FUJI FILM).
# A549 cells [3] = assay: A549 cell viability by MTS assay; format: cell-based, human; conditions: 48 hrs treatment
# Description: A549 cells (2500/well) were plated in 96 well trays in DMEM with 0.5% FBS and cultured at 37° C. with 5% CO2 overnight. The following day RB compounds were added and cells incubated for a further 48 hours prior to removal of the medium and replacement with MTS reagent diluted 1:6 in Dulbecco's PBS. The cells were incubated at 37° C. for a further 4 hours and the conversion of MTS to the coloured formazan compound determined by measurement of absorbance at 490 nm.
# A549 cells [4] = assay: A549 caspase-3 activation (NucView, flow cytometry); format: cell-based, human; conditions: 48 hrs treatment
# Description: as §1
# A549 cells [5] = assay: A549 colony assay in soft agar; format: cell-based, human; conditions: 14 days
# Description: A549 cells (7500) were plated in 0.33% low-melting point agarose in DMEM with 10% FBS with and without RB compounds over a 0.5% low-melting point agarose base. Cells were incubated at 37° C. with 5% CO2 for 14 days and then colonies were photographed and analysed using Image J.
# [6] = Toxicity of daily intraperitoneal dosing in mice; format: in vivo, Balb/C nude mice
# Description: Finally, we studied the effects of RB-012 in vivo. To assess any potential toxic effects, Balb/C nude mice were administered RB-012, delivered in saline, daily by intra-peritoneal injection at 5 mg/kg.
# A549 xenograft = A549 xenograft study; format: in vivo, BALB/c nude mice
# Description: All experimental procedures involving animals were conducted in accordance with the NHMRC Australian Code for the Care and Use of Animals for Scientific Purposes and with approval by the institutional animal ethics committee. BALB/c nude mice (Nu/Nu, female, 5-6 weeks old) were purchased from the Animal Resources Centre (Perth, Wash.) and maintained under pathogen-free conditions. A549 cells (5×106) in 100 μl PBS were injected subcutaneously into the flanks of the mice and the resulting tumour were measured using digital callipers. The tumour volume was calculated using the following formula: Volume=(larger diameter)×(small diameter)2/2. Once the tumours had reached 100 mm3, mice were divided into groups of 9 and each group administered either RB-012 in saline, FTY720 in saline or saline alone by intraperitoneal injection daily. Initially RB-12 and FTY720 were administered at 2 mg/kg for two days and then the dose was increased to 5 mg/kg for two weeks after which RB-012 was increased to 10 mg/kg but FTY720 maintained at 5 mg/kg. During this dosing regime tumours were monitored twice a week. Differences between samples were analysed using 2 way Anova and statistical significance was accepted at P<0.05.
# To assess the effect of RB-012 on human lung cancer growth in vivo, A549 cells were implanted subcutaneously on the flanks of Balb/C nude mice and tumours allowed to develop until they had reached a volume of 100 mm^3. RB-012 or saline was then administered daily to assess the effect on tumour growth. Initially, to reduce the cramping and encourage tolerance, 2 mg/kg RB-012 was administered for two days and then the dose was increased to 5 mg/kg daily for two weeks. Tumour volume was monitored twice a week and after two weeks of treatment mice administered RB-012 had tumours that were 20% smaller than mice receiving saline. […] The tumours on the RB-012 treated mice continued to grow more slowly and after the third week were 30% smaller than those of saline-treated mice (P<0.05). […] Therefore we were unable to increase FTY720 dosing to match RB-012.
# sphingosine kinases (SK) = assay: Effect on sphingosine kinase (SK) activity; conditions: data not shown
smiles,measurement,setting,value
CCCCCCCCc1ccc(CC[N+]2(C)CCCCC2)cc1 [RB-012],"ED50 for apoptosis induction, in words",Jurkat cells [1],low micromolar range
same,Annexin V presentation,"Jurkat cells [1]; 5 μM, 24 hours",Annexin V presentation
same,cell viability,"Jurkat cells [1]; 5 μM, 24 hours",loss of viability
same,apoptosis as determined by caspase-3 activation,"Jurkat cells [1]; 5 μM, within 5 hours",readily able to activate apoptosis
same,time at which BID cleavage is detected,Jurkat cells [2],3 h
same,time at which PARP cleavage is detectable,Jurkat cells [2],2 h
same,time at which clipping of 14-3-3 protein is detectable,Jurkat cells [2],2 h
same,time to commitment to apoptosis,Jurkat cells [2],2 to 3 h
same,"cell viability / growth and survival (MTS), in words",A549 cells [3],inhibited
same,IC50,"A549 cells [3]; Homo sapiens, A549",5.5 µM
same,caspase-3 activation,A549 cells [4],induce caspase activation; also recorded: greater potency
same,colony formation in soft agar,A549 cells [5],slightly greater potency
same,time within which cramping after injection subsided,[6]; 5 mg/kg daily intra-peritoneal,10 to 20 min
same,adverse effects,"[6]; 5 mg/kg daily intra-peritoneal in saline, 28 days",no adverse effects were noted with the exception of minor cramping
same,body weight,"[6]; 5 mg/kg daily intra-peritoneal, 28 days",unaltered
same,steady state haemopoiesis (blood and bone marrow samples),"[6]; end of treatment period, data not shown",no changes were observed
same,tolerability at 10 mg/kg,A549 xenograft; 10 mg/kg daily i.p.,well tolerated without adverse effects
same,tumours smaller than in mice receiving saline,"A549 xenograft; after two weeks, 2 mg/kg for two days, then 5 mg/kg daily i.p.",20%
same,"growth of A549 xenograft, in words","A549 xenograft; daily i.p., 2 then 5 then 10 mg/kg",retarded
same,effect on SK activity,sphingosine kinases (SK),does not affect SK activity
